Laboratory results reported in patent US8722670B2, “Selective NR2B antagonists” (Bristol-Myers Squibb Company, priority 2011, dated 2014).

biological target: T1, hNR2B (Homo sapiens, UniProt Q05586+Q13224); assay: Electrophysiology NMDA receptor experiments: two electrode voltage-clamp in Xenopus laevis oocytes, hNR2B IC50; type: cell-based; details: Activity, hNR2B activity class, 50 μM glutamate, 30 μM glycine
T1 construct: expressed in transfected cells; host or cells: Xenopus laevis oocytes, cRNA-injected
T1 sequence (Q13224 27-1484, other chains not shown): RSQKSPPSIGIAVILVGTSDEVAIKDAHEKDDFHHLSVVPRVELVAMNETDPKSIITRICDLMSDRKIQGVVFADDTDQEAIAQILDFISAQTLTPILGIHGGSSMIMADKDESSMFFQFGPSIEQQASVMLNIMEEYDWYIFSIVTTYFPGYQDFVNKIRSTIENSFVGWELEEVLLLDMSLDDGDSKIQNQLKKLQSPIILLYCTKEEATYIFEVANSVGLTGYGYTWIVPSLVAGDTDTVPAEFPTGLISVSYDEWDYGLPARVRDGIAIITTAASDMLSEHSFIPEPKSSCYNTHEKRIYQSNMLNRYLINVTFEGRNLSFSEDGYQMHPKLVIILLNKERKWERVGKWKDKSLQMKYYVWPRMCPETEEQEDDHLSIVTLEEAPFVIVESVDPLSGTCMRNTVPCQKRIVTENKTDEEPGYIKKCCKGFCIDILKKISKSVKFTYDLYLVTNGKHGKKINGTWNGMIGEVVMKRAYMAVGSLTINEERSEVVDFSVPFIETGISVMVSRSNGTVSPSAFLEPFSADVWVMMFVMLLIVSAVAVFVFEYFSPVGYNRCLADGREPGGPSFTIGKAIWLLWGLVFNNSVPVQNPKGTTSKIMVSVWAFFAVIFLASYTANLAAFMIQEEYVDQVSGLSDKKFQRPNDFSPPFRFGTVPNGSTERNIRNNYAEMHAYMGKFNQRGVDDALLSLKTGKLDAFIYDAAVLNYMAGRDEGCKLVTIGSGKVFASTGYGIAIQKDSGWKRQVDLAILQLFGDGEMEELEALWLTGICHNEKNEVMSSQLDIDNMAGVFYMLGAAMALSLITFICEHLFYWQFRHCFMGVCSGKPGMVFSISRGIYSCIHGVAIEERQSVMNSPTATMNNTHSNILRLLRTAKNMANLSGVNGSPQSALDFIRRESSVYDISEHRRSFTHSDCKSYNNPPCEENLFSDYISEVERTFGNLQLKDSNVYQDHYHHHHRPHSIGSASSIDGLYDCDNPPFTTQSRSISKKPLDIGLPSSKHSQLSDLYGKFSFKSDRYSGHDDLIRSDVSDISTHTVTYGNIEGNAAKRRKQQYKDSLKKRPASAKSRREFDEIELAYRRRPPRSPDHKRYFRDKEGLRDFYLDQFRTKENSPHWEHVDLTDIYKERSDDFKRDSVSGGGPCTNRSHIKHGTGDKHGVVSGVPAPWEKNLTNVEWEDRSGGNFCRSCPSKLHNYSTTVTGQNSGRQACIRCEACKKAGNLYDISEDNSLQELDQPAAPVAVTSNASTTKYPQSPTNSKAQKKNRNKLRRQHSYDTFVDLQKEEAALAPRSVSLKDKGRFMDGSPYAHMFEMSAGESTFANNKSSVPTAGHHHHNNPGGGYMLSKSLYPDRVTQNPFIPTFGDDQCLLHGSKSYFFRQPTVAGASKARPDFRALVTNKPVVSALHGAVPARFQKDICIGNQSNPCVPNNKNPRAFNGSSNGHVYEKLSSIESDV

| Structure (SMILES) | IC50 |
| --- | --- |
| O=c1ccc2cc(OCc3nnc(NCc4ccc(Cl)nc4)o3)ccc2[nH]1 [Example 24] | 1000 to 10000 nM |

same assay, conditions: hNR2B IC50 (nM), voltage clamp -40 mV, 50 μM glutamate, 30 μM glycine

| Structure (SMILES) | IC50 |
| --- | --- |
| O=c1ccc2cc(OCc3nnc(NCc4ccc(Cl)nc4)o3)ccc2[nH]1 [Example 24] | 7240 nM |

same assay, conditions: hNR2B activity class, 50 μM glutamate, 30 μM glycine, read-out: Activity

| IC50 | Structure (SMILES) |
| --- | --- |
| < 200 nM | CC(Oc1ccc2[nH]c(=O)ccc2c1)c1nnc(Nc2ccc(Cl)c(Cl)c2)o1 (single isomer, unassigned) [Example 109] |
| < 200 nM | O=C1Cc2cc(OCc3nnc(Nc4ccc(Cl)c(Cl)c4)o3)ccc2N1 [Example 8] |
| < 200 nM | O=C1Cc2cc(OCc3nnc(NCc4ccc(Cl)c(Cl)c4)o3)ccc2N1 [Example 9] |
| < 200 nM | O=c1ccc2cc(OCc3nnc(Nc4ccc(Cl)c(Cl)c4)o3)ccc2[nH]1 [Example 10] |
| < 200 nM | O=c1ccc2cc(OCc3nnc(Nc4ccc(Cl)cc4)o3)ccc2[nH]1 [Example 12] |
| < 200 nM | O=c1ccc2cc(OCc3nnc(Nc4ccc(OC(F)(F)F)cc4)o3)ccc2[nH]1 [Example 13] |
| 201 to 1000 nM | O=C1CCc2cc(OCc3nnc(Nc4ccc(OC(F)(F)F)cc4)o3)ccc2N1 [Example 14] |
| > 10000 nM | O=C1CCc2cc(OCc3nnc(Nc4ccc(Cl)cn4)o3)ccc2N1 [Example 15] |
| 201 to 1000 nM | O=C1CCc2cc(OCc3nnc(Nc4ccc(OC(F)F)cc4)o3)ccc2N1 [Example 16] |
| > 10000 nM | CCOC(=O)Cc1ccc(Nc2nnc(COc3ccc4c(c3)CCC(=O)N4)o2)cc1 [Example 18] |
| < 200 nM | O=C1CCc2cc(OCc3nnc(NCc4ccc(Cl)c(Cl)c4)o3)ccc2N1 [Example 21] |
| < 200 nM | O=c1ccc2cc(OCc3nnc(NCc4ccc(Cl)c(Cl)c4)o3)ccc2[nH]1 [Example 22] |
| < 200 nM | O=C1CCc2cc(OCc3nnc(NCc4ccc(OC(F)(F)F)cc4)o3)ccc2N1 [Example 23] |
| < 200 nM | O=c1ccc2cc(OCc3nnc(NCc4ccc(OC(F)(F)F)cc4)o3)ccc2[nH]1 [Example 26] |
| < 200 nM | O=c1ccc2cc(OCc3nnc(NCc4ccc(OC(F)F)cc4)o3)ccc2[nH]1 [Example 27] |
| < 200 nM | O=C1CCc2cc(OCc3nnc(NCc4ccc(OC(F)F)cc4)o3)ccc2N1 [Example 28] |
| < 200 nM | CS(=O)(=O)Nc1ccc(OCc2nnc(Nc3ccc(Cl)c(Cl)c3)o2)cc1 [Example 29] |
| > 10000 nM | CCOC(=O)Nc1ccc(OCc2nnc(Nc3ccc(Cl)c(Cl)c3)o2)cc1 [Example 31] |
| > 10000 nM | O=c1ccc2cc(OCc3nnc(Nc4ccccc4F)o3)ccc2[nH]1 [Example 33] |
| 1000 to 10000 nM | O=c1ccc2cc(OCc3nnc(Nc4ccccc4)o3)ccc2[nH]1 [Example 34] |
| 1000 to 10000 nM | O=c1ccc2cc(OCc3nnc(Nc4cccc(F)c4)o3)ccc2[nH]1 [Example 39] |
| 1000 to 10000 nM | O=c1ccc2cc(OCc3nnc(Nc4ccc(F)cc4)o3)ccc2[nH]1 [Example 40] |

| IC50 | Structure (SMILES) |
| --- | --- |
| > 10000 nM | O=c1ccc2cc(OCc3nnc(Nc4ccccc4Cl)o3)ccc2[nH]1 [Example 41] |
| 201 to 1000 nM | O=c1ccc2cc(OCc3nnc(Nc4cccc(C(F)(F)F)c4)o3)ccc2[nH]1 [Example 42] |
| 201 to 1000 nM | Cc1ccc(Nc2nnc(COc3ccc4[nH]c(=O)ccc4c3)o2)cc1 [Example 45] |
| 1000 to 10000 nM | Cc1cccc(Nc2nnc(COc3ccc4[nH]c(=O)ccc4c3)o2)c1 [Example 46] |
| < 200 nM | Clc1ccc(Nc2nnc(COc3ccc4[nH]ncc4c3)o2)cc1Cl [Example 50] |
| < 200 nM | O=c1ccc2cc(OCc3nnc(Nc4ccc(Cl)c(C(F)(F)F)c4)o3)ccc2[nH]1 [Example 51] |
| < 200 nM | CC(C)c1ccc(Nc2nnc(COc3ccc4[nH]c(=O)ccc4c3)o2)cc1 [Example 52] |
| > 10000 nM | O=c1ccc2cc(OCc3nnc(Nc4ccccc4C(F)(F)F)o3)ccc2[nH]1 [Example 54] |
| > 10000 nM | O=c1ccc2cc(OCc3nnc(Nc4ccc(Cl)cc4Cl)o3)ccc2[nH]1 [Example 56] |
| > 10000 nM | O=c1ccc2cc(OCc3nnc(Nc4cc(Cl)ccc4Cl)o3)ccc2[nH]1 [Example 57] |
| < 200 nM | O=c1ccc2cc(OCc3nnc(Nc4cccc(Cl)c4Cl)o3)ccc2[nH]1 [Example 59] |
| 1000 to 10000 nM | O=c1ccc2cc(OCc3nnc(NCc4ccccc4Cl)o3)ccc2[nH]1 [Example 63] |
| > 10000 nM | O=c1ccc2cc(OCc3nnc(Nc4c(Cl)cccc4Cl)o3)ccc2[nH]1 [Example 66] |
| 201 to 1000 nM | O=c1ccc2cc(OCc3nnc(NCc4ccc(Cl)cc4F)o3)ccc2[nH]1 [Example 67] |
| 201 to 1000 nM | O=c1ccc2cc(OCc3nnc(NCc4cccc(F)c4)o3)ccc2[nH]1 [Example 68] |
| 1000 to 10000 nM | O=c1ccc2cc(OCc3nnc(NCc4c(Cl)cccc4Cl)o3)ccc2[nH]1 [Example 70] |
| < 200 nM | O=c1ccc2cc(OCc3nnc(Nc4ccc(C(F)(F)F)c(Cl)c4)o3)ccc2[nH]1 [Example 73] |
| < 200 nM | O=c1ccc2cc(OCc3nnc(Nc4ccc(OC(F)(F)F)c(Cl)c4)o3)ccc2[nH]1 [Example 74] |
| 1000 to 10000 nM | O=c1ccc2cc(OCc3nnc(NCc4ccccc4C(F)(F)F)o3)ccc2[nH]1 [Example 75] |
| < 200 nM | O=c1ccc2cc(OCc3nnc(NCc4ccc(C(F)(F)F)cc4)o3)ccc2[nH]1 [Example 76] |
| 201 to 1000 nM | O=c1ccc2cc(OCc3nnc(NCc4cccc(Cl)c4)o3)ccc2[nH]1 [Example 77] |
| 1000 to 10000 nM | CC1(C)Cc2cc(OCc3nnc(Nc4ccc(Cl)c(Cl)c4)o3)ccc2NC1=O [Example 80] |

| IC50 | Structure (SMILES) |
| --- | --- |
| 1000 to 10000 nM | CC1(C)Cc2cc(OCc3nnc(Nc4ccc(Cl)c(F)c4)o3)ccc2NC1=O [Example 83] |
| > 10000 nM | CC1(C)Cc2cc(OCc3nnc(NCc4ccc(Cl)c(Cl)c4)o3)ccc2NC1=O [Example 84] |
| 1000 to 10000 nM | O=c1ccc2cc(OCc3nnc(NCc4ccc5c(c4)OCO5)o3)ccc2[nH]1 [Example 85] |
| 201 to 1000 nM | Cc1cc(CNc2nnc(COc3ccc4[nH]c(=O)ccc4c3)o2)ccc1F [Example 86] |
| < 200 nM | O=c1ccc2cc(OCc3nnc(Nc4ccc(OC(F)F)c(Cl)c4)o3)ccc2[nH]1 [Example 87] |
| < 200 nM | O=c1ccc2cc(OCc3nnc(Nc4ccc(Cl)c(OC(F)F)c4)o3)ccc2[nH]1 [Example 88] |
| 201 to 1000 nM | O=c1ccc2cc(OCc3nnc(Nc4cccc(Oc5ccccc5)c4)o3)ccc2[nH]1 [Example 89] |
| 201 to 1000 nM | Cc1cc(Nc2nnc(COc3ccc4[nH]c(=O)ccc4c3)o2)ccc1F [Example 90] |
| 1000 to 10000 nM | O=c1ccc2cc(OCc3nnc(Nc4ccc(Oc5ccccc5)cc4)o3)ccc2[nH]1 [Example 91] |
| < 200 nM | Cc1ccc(Nc2nnc(COc3ccc4[nH]c(=O)ccc4c3)o2)cc1Cl [Example 92] |
| 201 to 1000 nM | Cc1cccc(CNc2nnc(COc3ccc4[nH]c(=O)ccc4c3)o2)c1 [Example 94] |
| 201 to 1000 nM | O=c1ccc2cc(OCc3nnc(Nc4ccc(F)c(Cl)c4)o3)ccc2[nH]1 [Example 96] |
| 201 to 1000 nM | O=c1ccc2cc(OCc3nnc(Nc4ccc(F)c(C(F)F)c4)o3)ccc2[nH]1 [Example 99] |
| 1000 to 10000 nM | O=c1ccc2cc(OCc3nnc(NCc4ccccc4F)o3)ccc2[nH]1 [Example 100] |
| < 200 nM | Cc1ccc(Nc2nnc(COc3ccc4[nH]c(=O)ccc4c3)o2)cc1F [Example 102] |
| 201 to 1000 nM | COc1ccc(Nc2nnc(COc3ccc4[nH]c(=O)ccc4c3)o2)cc1F [Example 103] |
| < 200 nM | CC(Oc1ccc2[nH]c(=O)ccc2c1)c1nnc(Nc2ccc(Cl)c(Cl)c2)o1 (centres unmarked) [Example 106] |
| < 200 nM | CC(Oc1ccc2[nH]c(=O)ccc2c1)c1nnc(Nc2ccc(OC(F)F)c(Cl)c2)o1 (centres unmarked) [Example 108] |
| < 200 nM | O=C1Nc2ccc(OCc3nnc(Nc4ccc(Cl)c(Cl)c4)o3)cc2CO1 [Example 111] |
| < 200 nM | O=c1[nH]c2ccc(OCc3nnc(NCc4ccc(Cl)c(Cl)c4)o3)cc2[nH]1 [Example 112] |
| < 200 nM | O=c1[nH]c2ccc(OCc3nnc(Nc4ccc(Cl)c(Cl)c4)o3)cc2[nH]1 [Example 113] |

| Structure (SMILES) | IC50 |
| --- | --- |
| O=C1CCc2cc(OCc3nnc(NCc4ccc(Cl)nc4)o3)ccc2N1 [Example 25] | > 10000 nM |

same assay, conditions: voltage clamp -40 mV, 50 μM glutamate, 30 μM glycine, read-out: hNR2B IC50

| IC50 | Structure (SMILES) |
| --- | --- |
| 715 nM | O=C1CCc2cc(OCc3nnc(Nc4ccc(Cl)cc4)o3)ccc2N1 [Example 1, 6-((5-(4-chlorophenylamino)-1,3,4-oxadiazol-2-yl)methoxy)-3,4-dihydroquinolin-2(1H)-one] |
| > 10000 nM | O=c1ccc2cc(OCc3nnc(-c4ccc(Cl)c(Cl)c4)o3)ccc2[nH]1 [Example 2, 6-((5-(3,4-dichlorophenyl)-1,3,4-oxadiazol-2-yl)methoxy)quinolin-2(1H)-one] |
| 7300 nM | CC(C)OC(=O)Nc1ccc(OCc2nnc(Nc3ccc(Cl)c(Cl)c3)o2)cc1 [Example 3, Isopropyl 4-((5-(3,4-dichlorophenylamino)-1,3,4-oxadiazol-2-yl)methoxy)phenyl carbamate] |
| 265 nM | O=C1CCc2cc(OCc3nnc(Nc4ccc(Br)cc4)o3)ccc2N1 [Example 4] |
| 57 nM | O=C1CCc2cc(OCc3nnc(Nc4ccc(Cl)c(Cl)c4)o3)ccc2N1 [Example 5] |
| 55 nM | O=c1ccc2cc(OCc3nnc(Nc4ccc(C(F)(F)F)cc4)o3)ccc2[nH]1 [Example 11] |
| 80 nM | O=c1ccc2cc(OCc3nnc(Nc4ccc(OC(F)F)cc4)o3)ccc2[nH]1 [Example 17] |
| 476 nM | O=C1CCc2cc(OCc3nnc(NCc4ccc(Cl)cc4)o3)ccc2N1 [Example 20] |
| 19 nM | CS(=O)(=O)Nc1ccc(OCc2nnc(NCc3ccc(Cl)c(Cl)c3)o2)cc1 [Example 30] |
| 2120 nM | CCOC(=O)Nc1ccc(OCc2nnc(NCc3ccc(Cl)c(Cl)c3)o2)cc1 [Example 32] |
| 884 nM | O=c1ccc2cc(OCc3nnc(Nc4ccc(Cl)cc4F)o3)ccc2[nH]1 [Example 35] |
| 18 nM | O=c1ccc2cc(OCc3nnc(Nc4ccc(Cl)c(F)c4)o3)ccc2[nH]1 [Example 49] |
| 4040 nM | O=c1ccc2cc(OCc3nnc(Nc4cc(Cl)cc(Cl)c4)o3)ccc2[nH]1 [Example 53] |
| 542 nM | O=c1ccc2cc(OCc3nnc(Nc4ccc(Cl)c(OC(F)(F)F)c4)o3)ccc2[nH]1 [Example 55] |
| 830 nM | O=c1ccc2cc(OCc3nnc(Nc4cccc(Cl)c4)o3)ccc2[nH]1 [Example 58] |
